The record followed here is ChEMBL document CHEMBL1212755, “Factors influencing pharmacokinetics of prophylactic posaconazole in patients undergoing allogeneic stem cell transplantation” (Antimicrob Agents Chemother, 2010).

Common to all, as to format: ADME, organism-based
Series [1] is described as follows: Apparent volume of distribution in patient undergoing allogenic hematopoietic stem cell transplantation. Particulars: human, in vivo; read-out: Vc/F.
For the next series, the species on record is Homo sapiens. In words: Drug level in patient undergoing allogenic hematopoietic stem cell transplantation. To be noted: in vivo.
Series [2] can be described thus: Apparent oral clearance in patient undergoing allogenic hematopoietic stem cell transplantation. Particulars: human, in vivo.
Series [3] can be described thus: Apparent oral clearance in patient without diarrhea undergoing allogenic hematopoietic stem cell transplantation. Particulars: human, in vivo.
Series [4] can be described thus: Apparent oral clearance in patient with diarrhea undergoing allogenic hematopoietic stem cell transplantation. Particulars: human, in vivo.
Series [5] in a line: Apparent volume of distribution in patient with diarrhea undergoing allogenic hematopoietic stem cell transplantation. To be noted: human, in vivo; read-out: Vc/F.
Series [6] is described as follows: Cmax in patient undergoing allogenic hematopoietic stem cell transplantation. To be noted: human, in vivo.
Series [7] is described as follows: Apparent volume of distribution in patient without diarrhea undergoing allogenic hematopoietic stem cell transplantation. To be noted: human, in vivo; read-out: Vc/F.

Each structure is given as a SMILES string.

Broadly, the CL/F is the apparent clearance, not corrected for the fraction that reaches the circulation. A word on the Cmax: it is the peak of the concentration-time curve. For `CC[C@@H]([C@H](C)O)n1ncn(-c2ccc(N3CCN(c4ccc(OC[C@@H]5CO[C@@](Cn6cncn6)(c6ccc(F)cc6F)C5)cc4)CC3)cc2)c1=O` [POSACONAZOLE], the Vd/F was 835 L in series [1], 3800 L in series [5] and 2250 L in series [7]. This compound returned a Drug uptake in the series listed under Homo sapiens of 411 µg/L. Also, the CL/F is 1260 mL/min in series [2], 1120 mL/min in series [3] and 1890 mL/min in series [4]. Moreover, the Cmax in series [6] is 654 ng/mL.
